# Assay results taken from patent publication US4082736A, “Novel immunological adjuvant compounds and methods of preparation thereof” (Syntex (U.S.A.) Inc., priority 1976, dated 1978).
# Assays:
# [1] = system: guinea pig; assay: Antibody titre (antibovine serum albumin or antiovalbumin) in sera by passive hemagglutination or Farr radioimmune assay; format: in vivo; details: s.c. in FIA emulsion, sera of day 42, relative to FIA = 1
# Experimental: (§1) The antigen mixture used consists of 20 μg. of arsanilic tyrosine and 100 μg. of protein [either bovine serum albumin (BSA) or ovalbumin]. The antigen mixture and the compounds to be tested, at the dose levels per guinea pig shown in the Table below, are dissolved in saline and emulsified with an equal volume of Freund's Incomplete Adjuvant (FIA). Groups of ten guinea pigs are used for each test compound and each guinea pig is injected with 0.1 ml. of the above emulsion, subcutaneously, in the nuchal region. Control groups are given the antigen mixture alone emulsified with FIA.
# On day 42 all animals are bled by cardiac puncture and the sera assayed for antibovine serum albumin or antiovalbumin antibodies by the passive hemagglutination technique or by radioimmune assay using the Farr technique (P. Minden and R. S. Farr in "Handbook of Experimental Immunology", edited by D. M. Weir, Chapter 15, Volume 1, Blackwell Scientific Publications, Oxford) using ^125 iodine labeled bovine serum albumin. Average potencies of these assays are presented in Column 2 of the Table below relative to FIA having the value of one.
# [2] = system: guinea pig; assay: Delayed hypersensitivity skin test to arsanilic tyrosine after immunisation with antigen mixture plus test compound in FIA; format: in vivo; details: s.c. in FIA emulsion, skin test day 14, read at 24 hours, relative to FIA = 1
# Experimental: as §1
# After 14 days, all animals are skin tested using 25 μg arsanilic tyrosine conjugated to either BSA or ovalbumin (BSA is used in this test when ovalbumin is present in the antigen mixture and vice versa) which is given in 0.1 ml saline intradermally in the flanks of the animals. The potencies of the test compounds in stimulating the delayed hypersensitivity reaction are then computed by multiplying the average area of the skin reaction at 24 hours by a number from 1 to 3 which is a measure of the amount of infiltration observed in each skin reaction. Thus, the procedure is as follows: skin tests with a high degree of infiltration are scored as ++ and assigned the number 3; those with a lesser degree are scored as + and given the number 2, whereas skin reactions with no infiltration are scored as zero and assigned the number 1. These numbers are then totaled for the animals in a group and the average number obtained is then multiplied by the average area of the observed skin reaction. There is thus included in the potencies the amount of infiltration coupled with the average area observed in the skin test.
SMILES,"Average Potency, Antibody Titre ([1]; dose 50 μg per guinea pig)","Average Potency, Delayed Hypersensitivity to Arsanilic Tyrosine ([2]; dose 50 μg per guinea pig)","Average Potency, Antibody Titre ([1]; dose 20 μg per guinea pig)","Average Potency, Delayed Hypersensitivity to Arsanilic Tyrosine ([2]; dose 20 μg per guinea pig)"
"CC(=O)N[C@H]1C(O)O[C@H](CO)[C@@H](O)[C@@H]1O[C@H](C)C(=O)N[C@@H](C)C(=O)N[C@H](CCC(=O)O)C(N)=O (stereo partly drawn) [2-(2-acetamido-2-deoxy-D-glucos-3-O-yl)-D-propionyl-L-alanyl-D-isoglutamine, reference compound]",3.7,3.3,,
CC(=O)N[C@H]1C(O)O[C@H](CO)[C@@H](O)[C@@H]1O[C@H](C)C(=O)N[C@@H](CC(C)C)C(=O)N[C@H](CCC(=O)O)C(N)=O (stereo partly drawn) [2-(2-acetamido-2-deoxy-D-glucos-3-O-yl)-D-propionyl-L-leucyl-D-isoglutamine],5.3,7.5,,
CC(=O)N[C@H]1C(O)O[C@H](CO)[C@@H](O)[C@@H]1O[C@H](C)C(=O)N[C@@H](CCCCN)C(=O)N[C@H](CCC(=O)O)C(N)=O (stereo partly drawn) [2-(2-acetamido-2-deoxy-D-glucos-3-O-yl)-D-propionyl-L-lysyl-D-isoglutamine],,,1.2,0.9
CC(=O)N[C@H]1C(O)O[C@H](CO)[C@@H](O)[C@@H]1O[C@H](C)C(=O)N[C@@H](Cc1ccccc1)C(=O)N[C@H](CCC(=O)O)C(N)=O (stereo partly drawn) [2-(2-acetamido-2-deoxy-D-glucos-3-O-yl)-D-propionyl-L-phenylalanyl-D-isoglutamine],7.1,7.2,,
CC(=O)N[C@H]1C(O)O[C@H](CO)[C@@H](O)[C@@H]1O[C@H](C)C(=O)N1CCC[C@H]1C(=O)N[C@H](CCC(=O)O)C(N)=O (stereo partly drawn) [2-(2-acetamido-2-deoxy-D-glucos-3-O-yl)-D-propionyl-L-prolyl-D-isoglutamine],7.0,6.6,,
CC(=O)N[C@H]1C(O)O[C@H](CO)[C@@H](O)[C@@H]1O[C@H](C)C(=O)N[C@@H](Cc1ccc(O)cc1)C(=O)N[C@H](CCC(=O)O)C(N)=O (stereo partly drawn) [2-(2-acetamido-2-deoxy-D-glucos-3-O-yl)-D-propionyl-L-tyrosyl-D-isoglutamine],,,2.3,6.5
CC(=O)N[C@H]1C(O)O[C@H](CO)[C@@H](O)[C@@H]1O[C@H](C)C(=O)N[C@H](C(=O)N[C@H](CCC(=O)O)C(N)=O)C(C)C (stereo partly drawn) [2-(2-acetamido-2-deoxy-D-glucos-3-O-yl)-D-propionyl-L-valyl-D-isoglutamine],4.0,7.1,,
